Peptide text beside a SMILES is read from it.
Assays:
full length PSD-95 [1] = molecular target: T1, full length PSD-95 (Homo sapiens, UniProt P78352); test: competitive fluorescence polarization (FP) binding to full length PSD-95, tracer AB-143; settings: Ki,app
T1 construct: FL-PSD-95 (32M3C-PSD-95 FL 1-724); made in house; host or cells: E. coli BL21-DE3-pLysS

[2] = system: ePSD (PSD-95, Homer3, Shank3, GKAP, SynGAP); test: SDS-PAGE sedimentation assay with ePSD; type: biochemical; settings: n = 3; for promotion of LLPS of ePSD: SDS-PAGE sedimentation and quantification, ePSD incubated with indicated peptides; for LLPS induction in the PSD-95 containing ePSD: peptide 10 μM and 100 μM
Procedure: (§1) Proteins were all mixed in the desired concentration in PBS-TCEP and equilibrated for 10 min before centrifugation at 20,000 g for 15 min at 25°C using a temperature-controlled table top centrifuge. Following centrifugation, the supernatant was collected and the pellet was re-suspended in an equal amount of PBS-TCEP, usually 50 μL. To ensure proper suspension of LLPS samples were vortexed before addition of SDS buffer boiling at 95°C for 5 min. Supernatant and pellet fractions were run on any kD Mini-PROTEAN TGX Precast Protein Gels (10 or 15 wells, BioRad 4569036 or 4569033). Gels were imaged using a Li-COR Odyssey gel scanner and band intensities were analyzed using ImageJ. Significance was evaluated using one-way ANOVA with Dunnett post-test, one-way ANOVA with Tukey post-test or a two-way ANOVA with Dunnett post-test.

ePSD = test: confocal microscopy of ePSD LLPS droplets; type: biochemical
Procedure: (§2) Confocal microscopy was done using a Zeiss LSM780 using a 63x NA 1.4 plan apochromat oil objective using Argon 488 nm 25 mW, 543 nm HeNe 1.2 mW and 633 nm HeNe 5mW lasers using a detection wavelength of 490-538 nm for the 488 channel, 556-627 nm for the 543 channel, 636-758 for the 633 channel. Images were acquired using averaging of four line scans and 12-bit. The LLPS droplets were prepared in the desired concentration in PBS-TCEP at desired pH, mostly pH 7.4 unless stated otherwise, and added to an untreated lab tec (155411PK, Nunc, ThermoFischer) and imaged after being allowed to settle for 15 min at 25°C. For samples containing fluorescent protein or peptide the content of fluorescent protein or peptide was kept at 1-10% of indicated total protein or peptide concentration.

PSD-95 = test: confocal microscopy of LLPS droplets of fluorescently labeled PSD-95; type: biochemical, human; settings: peptide 36 μM, Alexa 633-PSD-95 30 nM labeled/3 μM unlabeled, validated by SDS-PAGE sedimentation
Procedure: as §2

full length PSD-95 [3] = molecular target: T1, full length PSD-95; test: SDS-PAGE sedimentation assay with PSD-95; type: biochemical; settings: SDS-PAGE sedimentation and quantification; n = 3
Procedure: as §1

15N-PDZ1-2 of PSD-95 = test: 1H-15N-HSQC NMR chemical shift perturbation; type: binding; settings: 512 μM StgA222-R236/128 μM 15N-PDZ1-2; 50 mM Tris pH 8, 200 mM NaCl, 1 mM TCEP, 25°C
Procedure: All NMR spectra were recorded on 600 MHz or 750 MHz Bruker Avance III HD spectrometers equipped with QCI or TCI cryo-probes at 25°C in 50 mM Tris pH 8, 200 mM NaCl, 1 mM TCEP, 10% D2O and 250 μM DSS. Spectra were processed with NMRPipe ([Delaglio et al., 1995]) or qMDD ([Kazimierczuk and Orekhov, 2011]) if non-uniform sampling was used for the acquisition and analyzed using CCPNMR analysis ([Skinner et al., 2016]). Amide nitrogen and proton chemical shift assignments were kindly shared by Prof. […] Combined chemical shift perturbations were calculated between the unbound and the bound states using.

[4] = SDS-PAGE sedimentation, ePSD 3 μM

T1 sequence (P78352 whole entry): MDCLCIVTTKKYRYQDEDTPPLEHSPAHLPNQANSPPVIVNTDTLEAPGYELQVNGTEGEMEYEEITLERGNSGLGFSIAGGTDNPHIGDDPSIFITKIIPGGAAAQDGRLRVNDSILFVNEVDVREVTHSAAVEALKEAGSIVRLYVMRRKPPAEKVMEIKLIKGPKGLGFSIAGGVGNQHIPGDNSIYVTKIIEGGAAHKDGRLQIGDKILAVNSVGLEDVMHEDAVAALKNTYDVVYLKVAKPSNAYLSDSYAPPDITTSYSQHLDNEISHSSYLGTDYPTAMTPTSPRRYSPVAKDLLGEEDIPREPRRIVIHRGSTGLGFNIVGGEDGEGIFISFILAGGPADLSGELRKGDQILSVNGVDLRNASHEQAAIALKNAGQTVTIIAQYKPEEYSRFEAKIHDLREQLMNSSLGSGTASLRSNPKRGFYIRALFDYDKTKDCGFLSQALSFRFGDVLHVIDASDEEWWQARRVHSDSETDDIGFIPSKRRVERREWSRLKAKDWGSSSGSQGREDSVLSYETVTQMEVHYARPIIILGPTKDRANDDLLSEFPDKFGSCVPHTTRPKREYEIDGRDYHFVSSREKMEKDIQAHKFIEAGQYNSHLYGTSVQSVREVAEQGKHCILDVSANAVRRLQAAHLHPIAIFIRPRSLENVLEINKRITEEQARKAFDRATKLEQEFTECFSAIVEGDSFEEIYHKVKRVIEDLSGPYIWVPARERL

CC[C@H](C)[C@H](NC(=O)[C@H](CO)NC(=O)[C@H](CO)NC(=O)[C@H](CC(C)C)NC(=O)[C@H](CCCCN)NC(=O)[C@H](CCCN=C(N)N)NC(=O)[C@H](CCCN=C(N)N)NC(=O)[C@H](CCCN=C(N)N)NC(=O)[C@H](CCC(N)=O)NC(=O)[C@H](CCCN=C(N)N)NC(=O)[C@H](CCCN=C(N)N)NC(=O)[C@H](CCCCN)NC(=O)[C@H](CCCCN)NC(=O)[C@H](CCCN=C(N)N)NC(=O)CNC(=O)[C@@H](N)Cc1ccc(O)cc1)C(=O)N[C@@H](CCC(=O)O)C(=O)N[C@@H](CO)C(=O)N[C@@H](CC(=O)O)C(=O)N[C@H](C(=O)O)C(C)C [NA-1] (H-YGRKKRRQRRRKLSSIESDV-OH)
Ki (full length PSD-95 [1]; pH 6.4, competitive FP, pH 6.4): 7.2 µM | Ki (full length PSD-95 [1]; pH 7.4, competitive FP, pH 7.4): 4.5 µM | Ki (full length PSD-95 [1]; pH 8.4, competitive FP, pH 8.4): 2.6 µM | Ki (full length PSD-95 [1]; pH 9.4, competitive FP, pH 9.4): 4.1 µM

CC[C@H](C)[C@H](NC(=O)[C@H](CO)NC(=O)[C@H](CO)NC(=O)[C@H](CC(C)C)NC(=O)[C@H](CCCCN)NC(=O)[C@H](CCCNC(=N)N)NC(=O)[C@H](CCCNC(=N)N)NC(=O)[C@H](CCCNC(=N)N)NC(=O)[C@H](CCC(N)=O)NC(=O)[C@H](CCCNC(=N)N)NC(=O)[C@H](CCCNC(=N)N)NC(=O)[C@H](CCCCN)NC(=O)[C@H](CCCCN)NC(=O)[C@H](CCCNC(=N)N)NC(=O)CNC(=O)[C@@H](N)Cc1ccc(O)cc1)C(=O)N[C@@H](CCC(=O)O)C(=O)N[C@@H](CO)C(=O)N[C@@H](CC(=O)O)C(=O)N[C@H](C(=O)O)C(C)C [NA-1] (H-YGRKKRRQRRRKLSSIESDV-OH; N-terminus and C-terminus assumed)
promotion of LLPS of ePSD [2]: able to promote LLPS | LLPS induction in the PSD-95 containing ePSD [2, 4]: could induce LLPS | LLPS once complexed with the ePSD (ePSD): induces LLPS | pH below which LLPS of PSD-95 is induced (PSD-95): below 7.4 pH | LLPS induction for PSD-95 alone by known inhibitors (full length PSD-95 [3]): able

YGRKKRRQRRR [TAT11]
promotion of LLPS of ePSD [2]: able to promote LLPS | LLPS induction of the ePSD ([2]; SDS-PAGE sedimentation, peptide 10 μM, ePSD 3 μM): induced LLPS | chemical shift perturbations in 1H-15N-HSQC (15N-PDZ1-2 of PSD-95): did not result in any chemical shift perturbations

YGRKKRRQRRR-NPEG4-di-IETAA [AVLX-144-AA]
effect on ePSD LLPS formation ([2]; SDS-PAGE sedimentation, ePSD 3 μM, compared with AVLX-144): largely compromised the ability to drive LLPS

YGRKKRRQRRR-NPEG4-di-IETDV [AVLX-144]
LLPS induction in the PSD-95 containing ePSD [2, 4]: induced LLPS to a minor extent | pH below which LLPS of PSD-95 is induced (PSD-95): below 6.4 pH

Source: publication PMC8844826 (iScience, 2022)
